# Measurements reported in patent publication US9079974B2, “GH-RH analogs with potent agonistic effects” (The University of Miami, priority 2011, dated 2015).
# Square brackets hold non-standard residues; d marks the D form. Peptide text beside a SMILES is read from it. * marks the point of attachment. Phe(F5) = N[C@@H](Cc1c(F)c(F)c(F)c(F)c1F)C(=O)O; Desaminotyrosyl = O=C(CCc1ccc(O)cc1)*; NMeY = CN[C@@H](Cc1ccc(O)cc1)C(=O)O; Agmatine = N=C(N)NCCCCN*; Nle = CCCC[C@H](N)C(=O)O; Orn = NCCC[C@H](N)C(=O)O; Abu = CC[C@H](N)C(=O)O; GABA = NCCCC(=O)O
# Molecular target: T1, GHRH receptor (Homo sapiens, UniProt Q02643)
# T1 construct: Normal human pituitaries were purchased from the National Hormone and Peptide Program; tissue National Hormone and Peptide Program (A. F. Parlow); host or cells: normal human pituitary, membrane fraction
# T1 sequence (Q02643 23-423): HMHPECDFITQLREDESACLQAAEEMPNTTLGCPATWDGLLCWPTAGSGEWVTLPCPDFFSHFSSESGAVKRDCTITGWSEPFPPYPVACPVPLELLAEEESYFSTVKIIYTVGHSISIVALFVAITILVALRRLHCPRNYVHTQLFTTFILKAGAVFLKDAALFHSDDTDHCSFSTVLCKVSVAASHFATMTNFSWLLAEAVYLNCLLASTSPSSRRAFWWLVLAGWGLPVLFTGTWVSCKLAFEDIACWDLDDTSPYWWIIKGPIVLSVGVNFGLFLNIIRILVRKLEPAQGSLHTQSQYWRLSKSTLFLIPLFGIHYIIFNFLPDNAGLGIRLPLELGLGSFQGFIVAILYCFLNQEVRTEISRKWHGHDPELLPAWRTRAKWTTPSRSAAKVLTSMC
# Assay: GHRH receptor binding, 125I-labeled JV-1-42 ligand competition, human pituitary membrane homogenates (Table 7)
# Conditions: 125I-labeled JV-1-42, human pituitary membranes
# Protocol: Preparation of human pituitary membrane fraction and receptor binding of GHRH agonists were performed as previously described, by using a sensitive in vitro ligand competition assay based on binding of ^125I-labeled JV-1-42 to human pituitary membrane homogenates. Normal human pituitaries were purchased from the National Hormone and Peptide Program (A. F. Parlow, Los Angeles, County Harbor-UCLA Medical Center, Torrance, Calif.).
row,Structure (SMILES),IC50 [nM]
1,"CCCC[C@H](NC(=O)[C@@H](NC(=O)[C@H](CC(=O)O)NC(=O)[C@H](CCC(N)=O)NC(=O)[C@H](CC(C)C)NC(=O)[C@H](CC(C)C)NC(=O)[C@H](CCCN)NC(=O)[C@H](CCCNC(=N)N)NC(=O)[C@H](C)NC(=O)[C@H](CO)NC(=O)[C@H](CC(C)C)NC(=O)[C@H](CCC(N)=O)NC(=O)[C@H](CC)NC(=O)[C@H](CC(C)C)NC(=O)[C@@H](NC(=O)[C@H](CCCN)NC(=O)[C@H](CCCNC(=N)N)NC(=O)[C@H](Cc1ccc(O)cc1)NC(=O)[C@H](CO)NC(=O)[C@H](CC(N)=O)NC(=O)[C@@H](NC(=O)[C@H](Cc1c(F)c(F)c(F)c(F)c1F)NC(=O)[C@@H](NC(=O)[C@H](C)NC(=O)[C@H](CC(=O)O)NC(=O)[C@@H](C)NC(=O)[C@H](Cc1ccc(O)cc1)NC)[C@@H](C)CC)[C@@H](C)O)C(C)C)[C@@H](C)CC)C(=O)N[C@@H](CC(=O)O)C(=O)NCCCCNC(=N)N [Peptide P-20359, [N—Me-Tyr^1, D-Ala^2, Fpa5^6, Orn^12, Abu^15, Orn^21, Nle^27, Asp^28, Agm^29]hGH-RH(1-29)] (H-[NMeY][dA]DAI[Phe(F5)]TNSYR[Orn]VL[Abu]QLSAR[Orn]LLQDI[Nle]D-Agmatine)",3.05
2,"CCCC[C@H](NC(=O)[C@@H](NC(=O)[C@H](CC(=O)O)NC(=O)[C@H](CCC(N)=O)NC(=O)[C@H](CC(C)C)NC(=O)[C@H](CC(C)C)NC(=O)[C@H](CCCN)NC(=O)[C@H](CCCNC(=N)N)NC(=O)[C@H](C)NC(=O)[C@H](CO)NC(=O)[C@H](CC(C)C)NC(=O)[C@H](CCC(N)=O)NC(=O)[C@H](CC)NC(=O)[C@H](CC(C)C)NC(=O)[C@@H](NC(=O)[C@H](CCCN)NC(=O)[C@H](CCCNC(=N)N)NC(=O)[C@H](Cc1ccc(O)cc1)NC(=O)[C@H](CO)NC(=O)[C@H](CCC(N)=O)NC(=O)[C@@H](NC(=O)[C@H](Cc1ccccc1)NC(=O)[C@@H](NC(=O)[C@H](C)NC(=O)[C@H](CC(=O)O)NC(=O)[C@@H](C)NC(=O)[C@H](Cc1ccc(O)cc1)NC)[C@@H](C)CC)[C@@H](C)O)C(C)C)[C@@H](C)CC)C(=O)N[C@@H](CC(=O)O)C(=O)NCCCCNC(=N)N [Peptide P-20361, [N—Me-Tyr^1, D-Ala^2, Gln^8, Orn^12, Abu^15, Orn^21, Nle^27, Asp^28, Agm^29]hGH-RH(1-29)] (H-[NMeY][dA]DAIFTQSYR[Orn]VL[Abu]QLSAR[Orn]LLQDI[Nle]D-Agmatine)",0.82
3,"CCCC[C@H](NC(=O)[C@@H](NC(=O)[C@H](CC(=O)O)NC(=O)[C@H](CCC(N)=O)NC(=O)[C@H](CC(C)C)NC(=O)[C@H](CC(C)C)NC(=O)[C@H](CCCN)NC(=O)[C@H](CCCNC(=N)N)NC(=O)[C@H](C)NC(=O)[C@H](CO)NC(=O)[C@H](CC(C)C)NC(=O)[C@H](CCC(N)=O)NC(=O)[C@H](CC)NC(=O)[C@H](CC(C)C)NC(=O)[C@@H](NC(=O)[C@H](CCCN)NC(=O)[C@H](CCCNC(=N)N)NC(=O)[C@H](Cc1ccc(O)cc1)NC(=O)[C@H](CO)NC(=O)[C@H](CC(N)=O)NC(=O)[C@@H](NC(=O)[C@H](Cc1ccccc1)NC(=O)[C@@H](NC(=O)[C@H](C)NC(=O)[C@H](CC(=O)O)NC(=O)[C@@H](C)NC(=O)[C@H](Cc1ccc(O)cc1)NC)[C@@H](C)CC)[C@@H](C)O)C(C)C)[C@@H](C)CC)C(=O)N[C@@H](CC(=O)O)C(=O)NCCCCNC(=N)N [Peptide P-20367, [N—Me-Tyr^1, D-Ala^2, Orn^12, Abu^15, Orn^21, Nle^27, Asp^28, Agm^29]hGH-RH(1-29)] (H-[NMeY][dA]DAIFTNSYR[Orn]VL[Abu]QLSAR[Orn]LLQDI[Nle]D-Agmatine)",1.7
4,"CCCC[C@H](NC(=O)[C@@H](NC(=O)[C@H](CC(=O)O)NC(=O)[C@H](CCC(N)=O)NC(=O)[C@H](CC(C)C)NC(=O)[C@H](CC(C)C)NC(=O)[C@H](CCCN)NC(=O)[C@H](CCCNC(=N)N)NC(=O)[C@H](C)NC(=O)[C@H](CO)NC(=O)[C@H](CC(C)C)NC(=O)[C@H](CCC(N)=O)NC(=O)[C@H](CC)NC(=O)[C@H](CC(C)C)NC(=O)[C@@H](NC(=O)[C@H](CCCN)NC(=O)[C@H](CCCNC(=N)N)NC(=O)[C@H](Cc1ccc(O)cc1)NC(=O)[C@H](CO)NC(=O)[C@H](CCC(N)=O)NC(=O)[C@@H](NC(=O)[C@H](Cc1ccccc1)NC(=O)[C@@H](NC(=O)[C@H](C)NC(=O)[C@H](CC(=O)O)NC(=O)[C@@H](C)NC(=O)CCc1ccc(O)cc1)[C@@H](C)CC)[C@@H](C)O)C(C)C)[C@@H](C)CC)C(=O)N[C@@H](CC(=O)O)C(=O)N[C@H](CCCNC(=N)N)C(=O)NC [Peptide P-27401, [Dat^1, D-Ala^2, Gln^8, Orn^12, Abu^15, Orn^21, Nle^27, Asp^28, D-Arg^29]hGH-RH(1-29)NH—CH3] (Desaminotyrosyl-[dA]DAIFTQSYR[Orn]VL[Abu]QLSAR[Orn]LLQDI[Nle]D[dR]-NHMe)",2.74
5,"CCCC[C@H](NC(=O)[C@@H](NC(=O)[C@H](CC(=O)O)NC(=O)[C@H](CCC(N)=O)NC(=O)[C@H](CC(C)C)NC(=O)[C@H](CC(C)C)NC(=O)[C@H](CCCN)NC(=O)[C@H](CCCNC(=N)N)NC(=O)[C@H](C)NC(=O)[C@H](CO)NC(=O)[C@H](CC(C)C)NC(=O)[C@H](CCC(N)=O)NC(=O)[C@H](CC)NC(=O)[C@H](CC(C)C)NC(=O)[C@@H](NC(=O)[C@H](CCCN)NC(=O)[C@H](CCCNC(=N)N)NC(=O)[C@H](Cc1ccc(O)cc1)NC(=O)[C@H](CO)NC(=O)[C@H](CC(N)=O)NC(=O)[C@@H](NC(=O)[C@H](Cc1c(F)c(F)c(F)c(F)c1F)NC(=O)[C@@H](NC(=O)[C@H](C)NC(=O)[C@H](CC(=O)O)NC(=O)[C@@H](C)NC(=O)[C@H](Cc1ccc(O)cc1)NC)[C@@H](C)CC)[C@@H](C)O)C(C)C)[C@@H](C)CC)C(=O)N[C@@H](CO)C(=O)N[C@@H](CCCNC(=N)N)C(=O)NCCCC(=O)NC [Peptide P-27414, [N—Me-Tyr^1, D-Ala^2, Fpa5^6, Orn^12, Abu^15, Orn^21, Nle^27, Gab^30]hGH-RH(1-30)NH—CH3] (H-[NMeY][dA]DAI[Phe(F5)]TNSYR[Orn]VL[Abu]QLSAR[Orn]LLQDI[Nle]SR[GABA]-NHMe)",1.56
6,"CCCC[C@H](NC(=O)[C@@H](NC(=O)[C@H](CC(=O)O)NC(=O)[C@H](CCC(N)=O)NC(=O)[C@H](CC(C)C)NC(=O)[C@H](CC(C)C)NC(=O)[C@H](CCCN)NC(=O)[C@H](CCCNC(=N)N)NC(=O)[C@H](C)NC(=O)[C@H](CO)NC(=O)[C@H](CC(C)C)NC(=O)[C@H](CCC(N)=O)NC(=O)[C@H](CC)NC(=O)[C@H](CC(C)C)NC(=O)[C@@H](NC(=O)[C@H](CCCN)NC(=O)[C@H](CCCNC(=N)N)NC(=O)[C@H](Cc1ccc(O)cc1)NC(=O)[C@H](CO)NC(=O)[C@H](CCC(N)=O)NC(=O)[C@@H](NC(=O)[C@H](Cc1ccccc1)NC(=O)[C@@H](NC(=O)[C@H](C)NC(=O)[C@H](CC(=O)O)NC(=O)[C@@H](C)NC(=O)[C@H](Cc1ccc(O)cc1)NC)[C@@H](C)CC)[C@@H](C)O)C(C)C)[C@@H](C)CC)C(=O)N[C@@H](CC(=O)O)C(=O)N[C@@H](CCCNC(=N)N)C(=O)NCC [Peptide P-28420, [N—Me-Tyr^1, D-Ala^2, Gln^8, Orn^12, Abu^15, Orn^21, Nle^27, Asp^28]hGH-RH(1-29)NH—CH2—CH3] (H-[NMeY][dA]DAIFTQSYR[Orn]VL[Abu]QLSAR[Orn]LLQDI[Nle]DR-NHEt)",0.52
